Measured values: patent publication US20230158022A1, “METHODS OF USING MYT1 INHIBITORS” (Repare Therapeutics Inc., priority 2020, published 2023)

Tests used:
[1] = system: RPE1-hTERT Cas9 TP53−/− parental (WT) and CCNE1-overexpressing clones; test: Dose-response proliferation assay (IncuCyte confluency), RPE1-hTERT parental vs CCNE1-overexpressing clones; assay type: cell-based; settings: dose titration, FIG. 3C
Experimental: For dose-response proliferation assays using RPE1-hTERT and FT282-hTERT cell lines, cells were seeded in 96-well plates and dosed with serially diluted Myt1 inhibitor. Cells were imaged once per day using the IncuCyte S3 microscope and percent well confluency was calculated over time. Once cells reached four population doublings the experiment was ended and IC50 curves were plotted for the final time point. Percentage confluency was calculated relative to the cell confluency in the untreated wells.

[2] = target: T1, recombinant human Myt1 (full length PKMYT1) (Homo sapiens, UniProt Q99640); test: Myt1 enzymatic assay (ADP-Glo kinase assay, ATP hydrolysis)
T1 sequence (Q99640 1-499): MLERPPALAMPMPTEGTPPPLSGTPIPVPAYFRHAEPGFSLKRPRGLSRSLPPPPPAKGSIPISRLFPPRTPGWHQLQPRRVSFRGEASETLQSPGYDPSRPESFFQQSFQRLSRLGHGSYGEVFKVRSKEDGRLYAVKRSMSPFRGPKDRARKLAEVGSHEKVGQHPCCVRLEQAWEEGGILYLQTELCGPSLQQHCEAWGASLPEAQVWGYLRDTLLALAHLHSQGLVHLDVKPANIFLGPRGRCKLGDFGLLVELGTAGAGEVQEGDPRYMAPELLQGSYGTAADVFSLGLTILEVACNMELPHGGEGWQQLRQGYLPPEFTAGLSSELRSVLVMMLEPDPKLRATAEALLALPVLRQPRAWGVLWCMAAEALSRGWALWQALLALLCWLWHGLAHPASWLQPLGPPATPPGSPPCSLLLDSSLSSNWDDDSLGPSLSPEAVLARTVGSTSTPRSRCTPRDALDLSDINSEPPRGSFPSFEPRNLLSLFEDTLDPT
Experimental: Detection of Myt1 kinase activity utilized a recombinant human Myt1 kinase assay measuring the hydrolysis of ATP using a commercially available ADP-Glo Assay (ADP-Glo™ Kinase Assay from Promega, 10 000 assays, #V9102). […] After this, 5 μL of compounds (diluted in reaction buffer to 0.5% DMSO) was added to the microplate and the plate was spun briefly and incubated at 22° C. for 15 minutes. […] Luminescence was read using the Envision (250 ms integration). The IC50 and the % max inhibition were calculated for each inhibitor compound tested.

## Cc1ccc(O)c(C)c1-n1c(N)c(C(N)=O)c2cc(Cl)cnc21 (single isomer, unassigned) [Compound 133, S-2-amino-5-chloro-1-(3-hydroxy-2,6-dimethyl-phenyl)pyrrolo[2,3-b]pyridine-3-carboxamide]
[1]
  sensitivity (cell viability) of CCNE1-overexpressing cells compared with corresponding WT cells: more sensitive

## Cc1ccc(O)cc1-n1c(N)c(C(N)=O)c2nc(Cl)ccc21 [Compound 4]
[2]
  IC50: 922 nM
